Assay results from the supplement of paper PMC10307832.

compound: Cn1cnc2c(F)c(Nc3ccc(Br)cc3Cl)c(C(=O)NOCCO)cc21 [Selumetinib] + CC(=O)Nc1cccc(-n2c(=O)n(C3CC3)c(=O)c3c(Nc4ccc(I)cc4F)n(C)c(=O)c(C)c32)c1 [Trametinib] (partner 0.02 µM); assay: relative viability (nuclei count vs DMSO), 5 days (fraction); higher = more cells survive; conditions: first compound 0.6325 µM
Method in brief: (§1)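 One day after seeding in 1536-well plates, lung cancer cell lines were dosed by pin tool. Dosing was either single-drug or a fixed anchor-drug dose plus five library-drug doses (not always all listed) in √10 steps. After 5 days, nuclei were stained in one fix-and-stain step and counted on 4× images, and relative viability is the nuclei count of treated wells over that of vehicle wells, given as the median of duplicate plates.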

Cell Line	relative viability
H3255	0.54
NCI-H2347	0.278
NCI-H1975	0.31
NCI-H441	0.455
NCI-H1915	0.257
NCI-H2087	0.204
NCI-H1793	0.436
RERF-LC-KJ	0.981
EKVX	0.32
LCLC-103H	0.672
NCI-H1651	0.87
NCI-H1944	0.389
NCI-H2009	0.257
SW 1573	0.545
NCI-H358	0.11
NCI-H727	0.381
SK-LU-1	0.412

compound: Cn1cnc2c(F)c(Nc3ccc(Br)cc3Cl)c(C(=O)NOCCO)cc21 [Selumetinib] + CCNC(=O)c1noc(-c2cc(C(C)C)c(O)cc2O)c1-c1ccc(CN2CCOCC2)cc1 [Luminespib] (partner 0.01 µM); assay: as above; conditions: first compound 0.02 µM
Method in brief: as §1

Cell Line	relative viability
NCI-H460	0.0285
LU99A	0.246
NCI-H2085	0.527
A-427	0.901
NCI-H520	0.226
NCI-H838	0.369
NCI-H1792	0.387
NCI-H596	1.13
NCI-H3122	0.0969
NCI-H1395	0.575
201T	1.08
NCI-H1993	0.786
HOP-62	0.862
NCI-H1355	0.665
NCI-H2405	0.603
NCI-H1437	1.15
NCI-H661	0.977
CAL-12T	0.322

Cell Line	relative viability
H3255	1.04
NCI-H2347	0.431
NCI-H1975	0.143
NCI-H441	0.25
NCI-H1915	0.887
NCI-H2087	0.167
NCI-H1793	0.15
RERF-LC-KJ	1.32
EKVX	0.931
LCLC-103H	0.922
NCI-H1651	0.757
NCI-H1944	0.907
NCI-H2009	0.826
SW 1573	0.207
NCI-H358	0.284
NCI-H727	0.257
SK-LU-1	0.183

same assay, conditions: first compound 0.06325 µM

Cell Line	relative viability
NCI-H460	0.0384
LU99A	0.259
NCI-H2085	0.402
A-427	0.986
NCI-H520	0.215
NCI-H838	0.331
NCI-H1792	0.408
NCI-H596	1.06
NCI-H3122	0.0828
NCI-H1395	0.713
201T	1.03
NCI-H1993	0.776
HOP-62	0.754
NCI-H1355	0.736
NCI-H2405	0.597
NCI-H1437	1.13
NCI-H661	0.929
CAL-12T	0.365

Cell Line	relative viability
H3255	0.918
NCI-H2347	0.287
NCI-H1975	0.209
NCI-H441	0.272
NCI-H1915	0.744
NCI-H2087	0.193
NCI-H1793	0.163
RERF-LC-KJ	0.924
EKVX	0.587
LCLC-103H	0.876
NCI-H1651	0.828
NCI-H1944	0.59
NCI-H2009	0.753
SW 1573	0.168
NCI-H358	0.148
NCI-H727	0.241
SK-LU-1	0.17

same assay, conditions: first compound 0.2 µM

Cell Line	relative viability
NCI-H460	0.041
LU99A	0.202
NCI-H2085	0.376
A-427	0.953
NCI-H520	0.213
NCI-H838	0.207
NCI-H1792	0.379
NCI-H596	0.914
NCI-H3122	0.0994
NCI-H1395	0.643
201T	0.962
NCI-H1993	0.695
HOP-62	0.656
NCI-H1355	0.6
NCI-H2405	0.426
NCI-H1437	1.03
NCI-H661	0.942
CAL-12T	0.284

Cell Line	relative viability
H3255	1.05
NCI-H2347	0.272
NCI-H1975	0.175
NCI-H441	0.204
NCI-H1915	0.587
NCI-H2087	0.148
NCI-H1793	0.154
RERF-LC-KJ	1.06
EKVX	0.657
LCLC-103H	0.831
NCI-H1651	0.835
NCI-H1944	0.48
NCI-H2009	0.558
SW 1573	0.214
NCI-H358	0.292
NCI-H727	0.206
SK-LU-1	0.178

same assay, conditions: first compound 0.6325 µM

Cell Line	relative viability
NCI-H460	0.0306
LU99A	0.201
NCI-H2085	0.326
A-427	0.874
NCI-H520	0.238
NCI-H838	0.259
NCI-H1792	0.313
NCI-H596	0.725
NCI-H3122	0.0908
NCI-H1395	0.694
201T	0.906
NCI-H1993	0.569
HOP-62	0.384
NCI-H1355	0.476
NCI-H2405	0.327
NCI-H1437	0.782
NCI-H661	0.864
CAL-12T	0.362

Cell Line	relative viability
H3255	0.87
NCI-H2347	0.332
NCI-H1975	0.183
NCI-H441	0.28
NCI-H1915	0.373
NCI-H2087	0.147
NCI-H1793	0.184
RERF-LC-KJ	0.987
EKVX	0.665
LCLC-103H	0.697
NCI-H1651	0.615
NCI-H1944	0.445
NCI-H2009	0.371
SW 1573	0.228
NCI-H358	0.127
NCI-H727	0.267
SK-LU-1	0.181

compound: Cn1cnc2c(F)c(Nc3ccc(Br)cc3Cl)c(C(=O)NOCCO)cc21 [Selumetinib] + C[C@]1(O)C[C@@H](c2nc(-c3ccc4ccc(-c5ccccc5)nc4c3)c3c(N)nccn32)C1 [Linsitinib] (partner 1 µM); assay: as above; conditions: first compound 0.02 µM
Method in brief: as §1

Cell Line	relative viability
NCI-H460	0.666
LU99A	0.49
NCI-H2085	0.863
A-427	1.16
NCI-H520	1.08
NCI-H838	0.883
NCI-H1792	0.442
NCI-H596	1.07
NCI-H3122	0.933
NCI-H1395	1.05
201T	0.987
NCI-H1993	0.746
HOP-62	0.98
NCI-H1355	0.72
NCI-H2405	0.77
NCI-H1437	0.905
NCI-H661	0.614
CAL-12T	0.821

Cell Line	relative viability
H3255	0.974
NCI-H2347	0.748
NCI-H1975	1
NCI-H441	0.543
NCI-H1915	0.768
NCI-H2087	0.817
NCI-H1793	0.883
RERF-LC-KJ	0.828
EKVX	0.864
LCLC-103H	1.04
NCI-H1651	0.973
NCI-H1944	0.979
NCI-H2009	1.07
SW 1573	0.779
NCI-H358	0.472
NCI-H727	0.17
SK-LU-1	0.897

same assay, conditions: first compound 0.06325 µM

Cell Line	relative viability
NCI-H460	0.429
LU99A	0.567
NCI-H2085	0.82
A-427	1.09
NCI-H520	0.944
NCI-H838	0.848
NCI-H1792	0.475
NCI-H596	1.02
NCI-H3122	0.817
NCI-H1395	0.939
201T	0.978
NCI-H1993	0.688
HOP-62	1.05
NCI-H1355	0.744
NCI-H2405	0.575
NCI-H1437	0.714
NCI-H661	0.455
CAL-12T	0.762

Cell Line	relative viability
H3255	0.899
NCI-H2347	0.633
NCI-H1975	0.886
NCI-H441	0.46
NCI-H1915	1.02
NCI-H2087	0.647
NCI-H1793	0.817
RERF-LC-KJ	0.949
EKVX	0.912
LCLC-103H	0.952
NCI-H1651	0.962
NCI-H1944	0.928
NCI-H2009	0.842
SW 1573	0.642
NCI-H358	0.512
NCI-H727	0.207
SK-LU-1	1.06

same assay, conditions: first compound 0.2 µM

Cell Line	relative viability
NCI-H460	0.262
LU99A	0.511
NCI-H2085	0.737
A-427	1.02
NCI-H520	1.09
NCI-H838	0.807
NCI-H1792	0.361
NCI-H596	1.01
NCI-H3122	0.766
NCI-H1395	0.973
201T	0.949
NCI-H1993	0.754
HOP-62	0.93
NCI-H1355	0.734
NCI-H2405	0.546
NCI-H1437	0.423
NCI-H661	0.469
CAL-12T	0.663

Cell Line	relative viability
H3255	0.918
NCI-H2347	0.47
NCI-H1975	0.892
NCI-H441	0.491
NCI-H1915	0.926
NCI-H2087	0.595
NCI-H1793	0.419
RERF-LC-KJ	0.862
EKVX	0.749
LCLC-103H	0.804
NCI-H1651	0.815
NCI-H1944	0.762
NCI-H2009	0.562
SW 1573	0.683
NCI-H358	0.424
NCI-H727	0.168
SK-LU-1	0.903

same assay, conditions: first compound 0.6325 µM

Cell Line	relative viability
NCI-H460	0.214
LU99A	0.566
NCI-H2085	0.763
A-427	0.925
NCI-H520	1.07
NCI-H838	0.735
NCI-H1792	0.251
NCI-H596	0.776
NCI-H3122	0.728
NCI-H1395	1.08
201T	0.932
NCI-H1993	0.878
HOP-62	0.469
NCI-H1355	0.555
NCI-H2405	0.392
NCI-H1437	0.277
NCI-H661	0.457
CAL-12T	0.588

Cell Line	relative viability
H3255	0.825
NCI-H2347	0.436
NCI-H1975	0.623
NCI-H441	0.435
NCI-H1915	0.539
NCI-H2087	0.374
NCI-H1793	0.392
RERF-LC-KJ	0.796
EKVX	0.711
LCLC-103H	0.968
NCI-H1651	0.902
NCI-H1944	0.687
NCI-H2009	0.489
SW 1573	0.596
NCI-H358	0.365
NCI-H727	0.166
SK-LU-1	0.625
